According to patent US20090123925A1, “CANCER THERAPY PROGNOSIS AND TARGET” (priority 2005, published 2009):
Where two headings read alike, the source gives them in different places. Where a SMILES comes first, the peptide text is derived from it. The star is where a group is joined. Cbz = O=C(OCc1ccccc1)*; CH2F = FC*

Assays:
Type in all cases: cell-based, human
[1] = system: oxaliplatin-resistant A549 cells (A549ox3, A549ox7.5); settings: MTT, 72 hours
Source text: (§1) The A549 cisplatin-, carboplatin- and oxaliplatin-cells were derived from the A549WT cell lines, by maintaining the cells in increasing concentrations of the relevant drug. […] This generated cisplatin-(A549cis1, A549cis2.5, A549cis5, A549cis7.5 and A549cis10), carboplatin-(A549car1, A549car2.5, A549car5, A549car10, A549car15 and A549car17.5) and oxaliplatin-(A549oxa2.5, A549oxa3, A549ox3.5, A549ox5 and A549oxa7.5) resistant A549 cell lines. The cells were exposed to each drug concentration for at least a 4-week period and allowed to recover in drug-free medium for a minimum of 2 weeks, before culture in a higher concentration of drug.
(§2) Cytotoxicity of each platinum drug in each cell line was determined by MTT (3-(4,5-dimethylthiazole-2-yl)-2,5-diphenyl tetrazolium bromide, Sigma) assay. Cells were seeded onto 96-well plates at a density of 2-3×10^3 cells per well and cultured for 24 hours. Then cells were incubated with relevant concentrations of carboplatin, cisplatin or oxaliplatin for 72 hours. After treatment, 30 μl of MTT (5 mg/ml) in PBS was incubated with cells in a 96-well plate for 4 h at 37° C. Subsequently, the medium containing MTT was removed, and 200 μl of DMSO was added to each well and shaken for 15 minutes. Spectrophotometric absorbance of each well was measured at 560 nm and 630 nm on a microplate reader (Bio-Rad, model 3550). GraphPad Prism 2.01 was used to calculate the IC50 of each platinum drug in different cell lines.
(§3) CA-074 Methyl ester (Sigma) was used to inhibit cathepsin B and caspase inhibitor I: (Z-VAD (OMe)-FMK, Calbiochem, UK) to inhibit caspases. Cathepsin L and K selective inhibitors (Cathepsin L inhibitor IV: Z-FF-FMK and Cathepsin K inhibitor I: 1,3-Bis (N-carbobenzoyloxy-L-leucyl) amino acetone, respectively (Calbiochem, UK)) and non-selective broad range cathepsin inhibitor (E-64d; (2S, 3S)-trans-epoxysuccinyl-L-leucylamido-3-methylbutane ethyl ester (Sigma, UK) were used to inhibit cysteine proteases.

[2] = system: carboplatin-resistant A549 cells (A549car15, A549car17.5); settings: for Fold change of IC50 in resistant line vs. A549 parental line: A549car15 (exposed up to 15 μM carboplatin), MTT, 72 hours
Source text: as §1, §2, §3

[3] = system: cisplatin-resistant A549 cells (A549cis7.5, A549cis10); settings: for Fold change of IC50 in resistant line vs. A549 parental line: A549cis7.5 (exposed up to 7.5 μM cisplatin), MTT, 72 hours
Source text: as §1, §2, §3

[4] = system: A549 wt cells; settings: wild-type or resistant A549 NSCLC cells; data not shown
Description: The human NSCLC cell line A549 [from ATCC; CCL-185] was maintained in F12-K and RPMI 1640 (supplemented with 10% foetal bovine serum (FBS), 100 U/ml penicillin, and 100 μg/ml streptomycin at 37° C., 5% CO2) in an incubator.
as §2
CA-074 Methyl ester (Sigma) was used to inhibit cathepsin B and caspase inhibitor I: (Z-VAD (OMe)-FMK, Calbiochem, UK) to inhibit caspases. […]

[5] = A549ox7.5 (exposed up to 7.5 μM oxaliplatin)

| Structure (SMILES) | Fold change of IC50 in resistant line vs. A549 parental line [1, 5] [fold] | Level of resistance at higher drug concentration ([2]; A549 cells exposed to 17.5 μM carboplatin, compared with 15 μM) | Fold change of IC50 in resistant line vs. A549 parental line [3] [fold] | Effect of caspase inhibition on sensitivity to platinum drugs [4] | Fold change of IC50 in resistant line vs. A549 parental line [2] [fold] | Level of resistance at higher drug concentration ([3]; A549 cells exposed to 10 μM cisplatin, compared with 7.5 μM) | Fold change of IC50 in resistant line vs. A549 parental line ([1]; A549 cells exposed up to 3 μM oxaliplatin) [fold] |
| --- | --- | --- | --- | --- | --- | --- | --- |
| N.N.O=C([O-])C1(C(=O)[O-])CCC1.[Pt+2] [carboplatin] | 1.5 | remained unchanged | 3.4 | – | – | – | – |
| COC(=O)C[C@H](NC(=O)[C@H](C)NC(=O)[C@@H](NC(=O)OCc1ccccc1)C(C)C)C(=O)CF [caspase inhibitor I, Z-VAD (OMe)-FMK] (Cbz-Val-Ala-Asp(OMe)-CH2F) | – | – | – | did not alter | – | – | – |
| N.N.[Cl][Pt][Cl] [cisplatin] | 1.8 | – | – | – | 3.02 | remained unchanged | – |
| O=C1[O][Pt]2([NH][C@@H]3CCCC[C@H]3[NH]2)[O]C1=O [oxaliplatin] | 5.3 | – | 0.54 | – | 0.47 | – | 3 |
